Tests used:
Type in all cases: in vivo
[1] = tested on: Surinam grass (Brachiaria decumbens); test: Test B pre-/postemergence plant response; details: Postemergence
Procedure, shortened: (§1)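 Compound in solvent + surfactant applied pre-em (loam/sand) or post-em (plants 2–18 cm, peat medium); greenhouse hold 13–15 days; visual 0–100 control score.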

[2] = tested on: blackgrass (Alopecurus myosuroides); test: Test B pre-/postemergence plant response; details: Postemergence
Procedure, shortened: as §1

corn (Zea mays) = test: Test B pre-/postemergence plant response; details: Postemergence
Procedure, shortened: as §1

[3] = tested on: giant foxtail (Setaria faberii); test: Test B pre-/postemergence plant response; details: Postemergence
Procedure, shortened: as §1

[4] = tested on: goosegrass (Eleusine indica); test: Test B pre-/postemergence plant response; details: Postemergence
Procedure, shortened: as §1

[5] = tested on: green foxtail (Setaria viridis); test: Test B pre-/postemergence plant response; details: Postemergence
Procedure, shortened: as §1

[6] = tested on: johnsongrass (Sorghum halepense); test: Test B pre-/postemergence plant response; details: Postemergence
Procedure, shortened: as §1

[7] = tested on: lambsquarters (Chenopodium album); test: Test B pre-/postemergence plant response; details: Postemergence
Procedure, shortened: as §1

[8] = tested on: pigweed (Amaranthus retroflexus); test: Test B pre-/postemergence plant response; details: Postemergence
Procedure, shortened: as §1

[9] = tested on: ragweed (common ragweed, Ambrosia elatior); test: Test B pre-/postemergence plant response; details: Postemergence
Procedure, shortened: as §1

wild oat (Avena fatua) = test: Test B pre-/postemergence plant response; details: Postemergence
Procedure, shortened: as §1

rice (Oryza sativa) = test: Test B flooded paddy test; details: for Plant response rating, Flood, Rice: 250 g ai/ha, flooded paddy test, visual rating on 0 to 100 scale (0 no effect, 100 complete control) after 13 to 15 days; for Plant response rating, Rice: Flood (flooded paddy test), 13 to 15 days
Procedure, shortened: (§2)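 Ratings are visual, 0–100 (100 = complete control), taken versus untreated controls 13 to 15 days after treatment in the greenhouse. Compound went straight into paddy water held 3 cm above soil, applied to 2-leaf-stage plants of four species.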

[10] = tested on: umbrella sedge (Cyperus difformis); test: Test B flooded paddy test; details: for Plant response rating, Flood, Sedge, Umbrella: 250 g ai/ha, flooded paddy test, visual rating on 0 to 100 scale (0 no effect, 100 complete control) after 13 to 15 days; for Plant response rating, Sedge, Umbrella: Flood (flooded paddy test), 13 to 15 days
Procedure, shortened: as §2

[11] = 31 g ai/ha, 0 to 100 scale (0 no effect, 100 complete control)
[12] = 62 g ai/ha, scale 0 to 100 (0 no effect, 100 complete control)
[13] = 250 g ai/ha, scale 0 to 100 (0 no effect, 100 complete control), 13 to 15 days
[14] = 125 g ai/ha, scale 0 to 100 (0 no effect, 100 complete control)
[15] = 62 g ai/ha, scale of 0 to 100 where 0 is no effect and 100 is complete control
[16] = 125 g ai/ha, scale 0 to 100, 0 is no effect, 100 is complete control
[17] = Flood, 31 g ai/ha, scale 0 to 100 (0 no effect, 100 complete control)

Compound: O=C(C1=C(O)C2CCC(C2)C1=O)c1cnc(-c2ccsc2)n(CC2CCCO2)c1=O (stereo not shown) [Compound 229]
- Plant response rating, Surinam Grass [1, 11]: 65
- Plant response rating, Surinam Grass [1, 12]: 70
- Plant response rating, Surinam Grass [1, 13]: 90
- Plant response rating, Blackgrass [2, 11]: 0
- Plant response rating, Blackgrass [2, 12]: 0
- Plant response rating, Blackgrass [2, 14]: 5
- Plant response rating, Blackgrass [2, 13]: 30
- Plant response rating, Corn (corn (Zea mays); [11]): 70
- Plant response rating, Corn (corn (Zea mays); [12]): 80
- Plant response rating, Corn (corn (Zea mays); [14]): 85
- Plant response rating, Corn (corn (Zea mays); [13]): 85
- Plant response rating, Foxtail, Giant [3, 11]: 75
- Plant response rating, Foxtail, Giant [3, 12]: 80
- Plant response rating, Foxtail, Giant [3, 14]: 80
- Plant response rating, Foxtail, Giant [3, 13]: 95
- Plant response rating, Goosegrass [4, 11]: 70
- Plant response rating, Goosegrass [4, 12]: 70
- Plant response rating, Goosegrass [4, 14]: 70
- Plant response rating, Goosegrass [4, 13]: 80
- Plant response rating, Foxtail, Green [5, 11]: 40
- Plant response rating, Foxtail, Green [5, 12]: 80
- Plant response rating, Foxtail, Green [5, 14]: 80
- Plant response rating, Foxtail, Green [5, 13]: 95
- Plant response rating, Johnsongrass [6, 11]: 70
- Plant response rating, Johnsongrass [6, 12]: 100
- Plant response rating, Johnsongrass [6, 14]: 100
- Plant response rating, Johnsongrass [6, 13]: 100
- Plant response rating, Lambsquarters [7, 11]: 85
- Plant response rating, Lambsquarters [7, 12]: 95
- Plant response rating, Lambsquarters [7, 14]: 95
- Plant response rating, Lambsquarters [7, 13]: 98
- Plant response rating, Pigweed [8, 11]: 80
- Plant response rating, Pigweed [8, 12]: 95
- Plant response rating, Pigweed [8, 13]: 100
- Plant response rating, Ragweed [9, 11]: 80
- Plant response rating, Ragweed [9, 12]: 80
- Plant response rating, Ragweed [9, 13]: 95
- Plant response rating, Oat, Wild (wild oat (Avena fatua); [11]): 0
- Plant response rating, Oat, Wild (wild oat (Avena fatua); [12]): 5
- Plant response rating, Oat, Wild (wild oat (Avena fatua); [13]): 35
- Plant response rating, Flood, Rice (rice (Oryza sativa)): 20
- Plant response rating, Rice (rice (Oryza sativa); [15]): 0
- Plant response rating, Rice (rice (Oryza sativa); [16]): 0
- Rice plant response rating (rice (Oryza sativa); [17]): 0
- Plant response rating, Flood, Sedge, Umbrella [10]: 70
- Plant response rating, Sedge, Umbrella [10, 15]: 0
- Plant response rating, Sedge, Umbrella [10, 16]: 50
- Sedge, Umbrella plant response rating [10, 17]: 0

Compound: COCCn1c(-c2cccc(C)c2)ncc(C(=O)C2=C(O)C3CCC(C3)C2=O)c1=O (stereo not shown) [Compound 233]
- Plant response rating, Surinam Grass [1, 11]: 80
- Plant response rating, Surinam Grass [1, 12]: 85
- Plant response rating, Surinam Grass [1, 13]: 100
- Plant response rating, Blackgrass [2, 11]: 5
- Plant response rating, Blackgrass [2, 12]: 30
- Plant response rating, Blackgrass [2, 14]: 30
- Plant response rating, Blackgrass [2, 13]: 50
- Plant response rating, Corn (corn (Zea mays); [11]): 30
- Plant response rating, Corn (corn (Zea mays); [12]): 50
- Plant response rating, Corn (corn (Zea mays); [14]): 85
- Plant response rating, Corn (corn (Zea mays); [13]): 85
- Plant response rating, Foxtail, Giant [3, 11]: 90
- Plant response rating, Foxtail, Giant [3, 12]: 95
- Plant response rating, Foxtail, Giant [3, 14]: 98
- Plant response rating, Foxtail, Giant [3, 13]: 98
- Plant response rating, Goosegrass [4, 11]: 85
- Plant response rating, Goosegrass [4, 12]: 95
- Plant response rating, Goosegrass [4, 14]: 98
- Plant response rating, Goosegrass [4, 13]: 98
- Plant response rating, Foxtail, Green [5, 11]: 85
- Plant response rating, Foxtail, Green [5, 12]: 90
- Plant response rating, Foxtail, Green [5, 14]: 95
- Plant response rating, Foxtail, Green [5, 13]: 100
- Plant response rating, Johnsongrass [6, 11]: 0
- Plant response rating, Johnsongrass [6, 12]: 5
- Plant response rating, Johnsongrass [6, 14]: 25
- Plant response rating, Johnsongrass [6, 13]: 25
- Plant response rating, Lambsquarters [7, 11]: 98
- Plant response rating, Lambsquarters [7, 12]: 98
- Plant response rating, Lambsquarters [7, 14]: 100
- Plant response rating, Lambsquarters [7, 13]: 100
- Plant response rating, Pigweed [8, 11]: 85
- Plant response rating, Pigweed [8, 12]: 98
- Plant response rating, Ragweed [9, 11]: 80
- Plant response rating, Ragweed [9, 12]: 85
- Plant response rating, Ragweed [9, 13]: 98
- Plant response rating, Oat, Wild (wild oat (Avena fatua); [11]): 30
- Plant response rating, Oat, Wild (wild oat (Avena fatua); [12]): 35
- Plant response rating, Oat, Wild (wild oat (Avena fatua); [13]): 60
- Plant response rating, Flood, Rice (rice (Oryza sativa)): 50
- Plant response rating, Rice (rice (Oryza sativa); [15]): 25
- Plant response rating, Flood, Sedge, Umbrella [10]: 85
- Plant response rating, Sedge, Umbrella [10, 15]: 70

— US8952024B2, “Herbicidal pyrimidone derivatives” (E I du Pont de Nemours and Company, priority 2009, dated 2015)
